Results reported in US11135200B2, “Antimicrobial drug synthesis and therapeutic compositions” (priority 2014, dated 2021).
Where two headings read alike, the source gives them in different places.

How the values were obtained:
[1] = Pharmacokinetics after administration of rac-ornidazole in a formulation; format: in vivo, human; conditions: for AUC of the component compared with rac-ornidazole / T1/2 of the component compared with rac-ornidazole: after a single administration of rac-ornidazole
prothrombin time = experiment: Effect on prothrombin time; conditions: relative to the Ornidazole racemic mixture

SMILES: Cc1ncc([N+](=O)[O-])n1CC(O)CCl (racemic) [(rac)-ornidazole, 1-chloro-3-(2-methyl-5-nitro-1H-imidazol-1-yl)propan-2-ol, reference compound]
- half-life ([1]; human, in vivo, after a single administration of rac-ornidazole in a formulation, read-out: elimination half-life (T1/2)): 14 to 18 h
- Tmax ([1]; human, in vivo, after administration of rac-Ornidazole in a formulation): 2 to 4 h
- half-life ([1]; human, in vivo, after oral administration, read-out: terminal elimination half-life): 14 to 18 h
- Cmax ([1]; human, in vivo, after single administration of rac-ornidazole in a formulation): 9000 to 31500 ng/mL

SMILES: Cc1ncc([N+](=O)[O-])n1C[C@@H](O)CCl [(R)-ornidazole]
- AUC of the component compared with rac-ornidazole [1]: similar
- T1/2 of the component compared with rac-ornidazole [1]: similar
- effect on prothrombin time (prothrombin time): diminished effect on prothrombin time

SMILES: Cc1ncc([N+](=O)[O-])n1C[C@H](O)CCl [(S)-ornidazole]
- AUC of the component compared with rac-ornidazole [1]: similar
- T1/2 of the component compared with rac-ornidazole [1]: similar
- effect on prothrombin time (prothrombin time): diminished effect on prothrombin time
